Reference: patent US12685728B2, “Anti-vertigo compound and pharmaceutical compositions thereof” (Amneal Pharmaceuticals LLC, priority 2020, dated 2026)

Experiments:
[1] = test system: patients with Peripheral vertigo; test: Open label, active comparator controlled clinical trial: MVS score (severity of vertigo symptoms); format: in vivo, human
Source text: The MVS score, a 12-item composite score to measure the severity of vertigo symptoms, is defined as the mean intensity of 6 (unprovoked) vertigo symptoms (dysstasia and walking unsteadiness, staggering, rotary sensation, tendency to fall, lift sensation, blackout) and vertigo in consequence of 6 triggering factors [change of position (lying), bowing, getting up, driving by car/train, head movements (inclination, twist), eye movement]. The intensity of each of the 12 single symptoms is rated by the patients by means of a 5-point VAS (0=not present, 1=moderate, 2=medium, 3=strong, 4=very strong). A mean MVS serving as a measure of vertigo intensity, will be calculated by adding the scores on all 12 vertigo symptoms and dividing by 12. The scale is rated by patients directly.
(§1) The current study was designed as an open label, two-treatment arm, active comparator controlled, Clinical trial in patients with Peripheral vertigo. This study involved a screening phase, randomization and treatment phase as mentioned below: • Screening phase (Visit 1): −14 to −1 day • Baseline visit and day of randomization (Visit 2): Day 0/1 • Treatment phase: Day 1 to Day 28 • End of treatment (Visit 4): Day 29±2 days
(§2) Patients with Peripheral vertigo, meeting the mentioned eligibility criteria were identified and shortlisted patients underwent screening within 14 days prior to randomization. A total of 16 patients were randomized in the ratio of 3:1 to receive the test and active comparator products (12 patients received test product and 4 patients received active comparator product). Test product was consumed as 20 mg Levocloperastine orally three times a day for 28 days. Active comparator (standard of care) was consumed by the patients as per the investigator's sole discretion and medical judgement. The standard of care treatment included Betahistine 16 mg tablets three times daily OR Betahistine 16 mg tablets three times daily plus Acetazolamide 125 mg tablets two time daily OR Cinnarizine 25 mg tablets three times daily which was given to patient.
MVS Score: Mean change in MVS score from baseline score was compared between two treatment arms.

[2] = test system: patients with Peripheral vertigo; test: Same clinical trial: composite score of vegetative concomitant symptoms (nausea, vomiting, sweating, tachycardia), 5-point VAS; format: in vivo, human
Source text: as §1, §2
Additionally, mean change in composite score of vegetative concomitant symptoms from baseline score was compared between two treatment arms. The absolute data and mean changes from baseline data are presented below in Table 2.

[3] = doses up to 450-fold higher than the therapeutic doses; cited from earlier work
[4] = test system: patients with Peripheral vertigo; test: Same clinical trial: tolerability; format: in vivo, human; conditions: 20 mg orally three times a day for 28 days
Source text: as §1, §2

[5] = 20 mg orally three times a day for 28 days
[6] = 7 days after treatment onset [Interim visit: Day 7 + 3]
[7] = 28 days after treatment onset [end of treatment: Day 29 ± 2]

Clc1ccc([C@@H](OCCN2CCCCC2)c2ccccc2)cc1 (racemic) [Levocloperastine]
Efficacy on primary efficacy endpoint MVS score versus standard of care [1, 5]: equally efficacious in comparison to standard of care treatment | MVS Score, Change from baseline, Mean ± SD ([1]; A/28 Days [Day 29 ± 2]): −1.1 ± 0.45 | MVS Score, Mean ± SD ([1]; A/28 Days [Day 29 ± 2]): 1.1 ± 0.58 | MVS Score, Change as % ([1]; A/28 Days [Day 29 ± 2] vs baseline): −50.00% | MVS Score, Mean ± SD ([1]; Baseline (Day 0/1)): 2.2 ± 0.29 | MVS Score, Change from baseline, Mean ± SD ([1]; Interim visit [Day 7 + 3]): −0.7 ± 0.33 | MVS Score, Mean ± SD ([1]; Interim visit [Day 7 + 3]): 1.5 ± 0.49 | MVS Score, Change as % ([1]; Interim visit [Day 7 + 3] vs baseline): -31.8% | Alleviation of vegetative concomitant symptoms versus standard of care [2, 5]: statistically better in alleviating the vegetative concomitant symptoms than the standard of care treatment | Score of vegetative concomitant symptoms, Absolute data, Mean ± SD [2, 6]: 0.6 ± 0.73 | Score of vegetative concomitant symptoms, Change as % [2, 6]: −46.15% | Score of vegetative concomitant symptoms, Change from baseline, Mean ± SD [2, 6]: −0.6 ± 0.81 | Score of vegetative concomitant symptoms, Absolute data, Mean ± SD [2, 7]: 0.2 ± 0.47 | Score of vegetative concomitant symptoms, Change as % [2, 7]: −84.62% | Score of vegetative concomitant symptoms, Change from baseline, Mean ± SD [2, 7]: −1.1 ± 0.98 | Score of vegetative concomitant symptoms, Absolute data, Mean ± SD ([2]; Baseline): 1.3 ± 1.05 | Duration of treatment for comparable improvement in vegetative concomitant symptoms severity ([2]; human, in vivo): about 7 days | Sedation [3]: did not induce any clinically relevant sedation | Tolerability [4]: well tolerability in all patients
